Source: patent publication US8765107B2, “Process for straightening keratin fibres with a heating means and denaturing agents” (L'Oreal, priority 2006, dated 2014)

Assay: hair relaxing with resorcinol under the conditions of M. Wong et al.
Settings: resorcinol at a concentration of 40% and at a pH of 7
Text: The use of resorcinol at a concentration of 40% and at a pH of 7 for relaxing the hair has been reported by M. Wong et al.: M. Wong, G. Vis-surel, and J. Epps J. Soc. Cosmet. Chem. (1994), 45, 347-352.

Oc1cccc(O)c1 [resorcinol]
relaxing of the hair: do not relax it, but lead, at the very best, to slight uncurling
